Read-outs that look alike come from different tables or passages of the source.
Tests used:
[1] = system: Sprague-Dawley laboratory rats; assay: Locomotion (ambulations) by infrared photobeams (risperidone studies); type: in vivo, Sprague-Dawley Rattus Norvegicus; conditions: Subacute
Procedure: (§1) Behaviors were monitored with infrared photobeams which surrounded the faradaic chamber. Open-field behaviors of locomotion (ambulations) and stereotypy (fine movements of sniffing and grooming) were recorded in sec and repeated every five min for a period of 2 hrs before each treatment and a period of 2 hrs after each treatment. Open-field behaviors were monitored simultaneously with in vivo microvoltammetric recordings of monoamines.
(§2) The first hr pre-drug, allowed exploratory behavior. Exploratory behavior is defined as open-field behavior of ambulations (forward locomotion) and stereotypy (fine movements of sniffing and grooming), wherein animals respond to the stimuli of a novel environment with a high frequency of behavioral counts. The second hr pre-drug allowed the animal to become habituated before treatment. […] In the acute studies, each drug was administered […]. For the subacute studies, twenty four hrs later, the animals were again placed in the faradaic behavioral chamber and no further drug was administered. Each animal was monitored for possible recovery, withdrawal or after-effects. of each treatment WHILE open-field behaviors of locomotions and stereotypy were monitored with computerized infrared photocell beams which surround the faradaic chamber.
(§3) The faradaic chamber was made of plexiglas and covered with copper wire to refract possible electrical artifacts (dimensions: 24 inch (width) by 18 inch (depth) by 23.5 inch (height)). A 16 by 16 array of infrared photobeams, held in place by an aluminum frame, was situated ¾ inch above the Plexiglas floor of the chamber to detect locomotor and stereotypic movements. Photobeams were sampled by a Pentium computer to define the x-y position of the animal within a 1.5 inch resolution every 100 msec. When an x-y position was calculated, it was used to define a particular behavioral parameter. This system is a modified version of an Activity Pattern Monitor (APM) (San Diego Instruments, San Diego, Calif.). Behavioral data is presented in terms of Frequency of Events.
(§4) Neurochemical and behavioral data, derived from the last thirty minutes of the habituation period, provided the baseline data. […] Where appropriate, data points in the time course were subjected to 95% Confidence Limits (C.L.).

[2] = system: 5-HT release in NAcc; assay: In vivo microvoltammetry, 5-HT release in NAcc (risperidone studies); parameters: species or system Sprague-Dawley Rattus Norvegicus; conditions: Subacute, cocaine 10 mg/kg i.p. on Day 1
Procedure: In vivo microvoltammetry was used to detect dopamine (DA) and serotonin (5-HT) release from Nucleus Accumbens (NAcc) of freely moving, male, Sprague Dawley laboratory rats, while animals' locomotor (forward ambulations) and stereotypic behavior (fine movements of sniffing and grooming) were monitored at the same time with infrared photobeams. Monoamine release mechanisms were determined by using a depolarization blocker, gamma-butyrolactone (γBL). Miniature carbon sensors, BRODERICK PROBE® Lauric Acid Microelectrodes, smaller than a human hair, were used in conjunction with a semidifferential electrochemical circuit, to detect release of each monoamine in separate signals and within seconds. […] The hypothesis for the present studies is derived from a growing body of evidence that cocaine-induced psychosis and schizophrenic psychosis share similar neurochemical and behavioral manifestations.
Animals were purchased from Charles River Laboratories, Kingston, N.Y. and were housed in our animal care facilities for two weeks before surgery was performed. The Animal Care Facility operates under the auspices of the CUNY, City College Institutional Animal Care and Use Committee (IACUC) in compliance with National Institute of Health (NIH) guidelines. The weight range for the animals, at the time of the studies, was 350-475 g. Animals were group housed before surgery, individually housed after surgery and fed Purina Rat Chow and water ad libitum. A twelve hr dark-light cycle was maintained both in the housing of the animals and throughout the experimental studies. […] A Ag/AgCl reference electrode was placed in contact with dura, 7 mm anteriorally and contralaterally to the indicator microelectrode. A stainless steel auxiliary microelectrode, was placed in contact with dura.
In vivo microvoltammetric studies on conscious Sprague-Dawley laboratory rats were begun nine to fifteen days after the aseptic surgical operations were performed. On each experimental day, animals were placed in a Plexiglas-copper faradaic chamber. The three-microelectrode assembly, enclosed within the animal's prosthetic acrylic cap, was connected to a CV37 detector by means of a mercury commutator (Br. Res. Instr., Princeton, N.J.), a flexible cable, and a mating connector (BJM Electronics, Staten Island, N.Y.). The CV37 detector was electrically connected to a Minigard surge suppresser (Jefferson Electric, Magnetek, N.Y.) which was then connected to an electrical ground in isolation. […] Each animal was used as its own control. In vivo microvoltammetric scans were recorded in sec and repeated every five min for a period of 2 hrs before each treatment and a period of two hrs after each treatment.
as §2

[3] = system: Sprague-Dawley laboratory rats; assay: Locomotor activity (ambulations) by infrared photobeams (clozapine studies); type: in vivo, Sprague-Dawley Rattus Norvegicus; conditions: Subacute, cocaine 10 mg/kg i.p. on Day 1
Excerpt: Locomotor activity (ambulation) was monitored with infrared photobeams at the same time as DA and 5-HT release in NAcc was detected with BRODERICK PROBES® in conjunction with In Vivo Microvoltammetry. The chamber was faradaic, covered with copper to refract possible electrical artifacts (dimensions: 24 in (width) by 18 in (depth) by 23.5 in (height)). A 16 by 16 array of these infrared photobeams, were held in place by an aluminum frame which was situated ¾ in above the Plexiglas floor of the chamber to detect locomotor activity. Photobeams were sampled by a Pentium computer to define the x-y position of the animal within a 1.5 in resolution every 100 msec. When an x-y position was calculated, it was used to define the frequency of locomotor activity in counts. The locomotor activity system is a modified version of an Activity Pattern Monitor (APM) (San Diego Instruments, San Diego, Calif.). Behavioral data is presented in absolute frequency, i.e., number of counts recorded.
The first hr pre-drug allowed exploratory behavior. Exploratory behavior is defined as open-field behavior of ambulations (forward locomotion) wherein animals respond to the stimuli of a novel environment with high frequency of behavioral counts. The second hr pre-drug allowed the animal to become habituated before treatment.
In the Acute studies, each drug was administered at the end of the habituation period. Baseline (control) values were taken every five min for the last thirty min of the habituation period at which time drug injection(s) took place. Electrochemical recordings for DA and 5-HT release in NAcc, were continued for two hrs; at the same time, locomotor behavior continued to be monitored and recorded with infrared photobeams. At the end of the 2 hr drug(s) study, animals were then placed back in their home cages.
In the Subacute studies, which took place twenty-four hrs later, the animals were again placed in the faradaic behavioral chamber and no further drug was administered. Recordings of separate electrochemical signals for DA and 5-HT release in NAcc, were taken for one hr; at the same time, locomotor behavior was monitored and recorded with infrared photobeams.
as §4

[4] = system: Sprague-Dawley laboratory rats; assay: Stereotypy (fine movements of sniffing and grooming) by infrared photobeams (risperidone studies); type: in vivo, Sprague-Dawley Rattus Norvegicus
Procedure: as §1, §2, §3, §4

[5] = cited from earlier work

COC(=O)[C@H]1[C@@H](OC(=O)c2ccccc2)C[C@@H]2CC[C@H]1N2C [Cocaine, cocaine]
Decrease in locomotor activity frequency on Day 2 compared with drug treatment, Day1 [1]: about 200 counts
Decrease in 5-HT release on Day 2 compared to drug effect on Day1 [2]: about 75%
Decrease in locomotor activity on Day 2 compared with Day 1 effects of cocaine [3]: 250 counts
Stereotypy frequency, Day 2 (Subacute) ([4]; 24 hr after cocaine 10 mg/kg i.p. or risperidone 2 mg/kg s.c. + cocaine): 40 counts
Decrease in stereotypy frequency on Day 2 compared with drug treatment, Day1 ([4]; Subacute, cocaine 10 mg/kg i.p.): about 20 counts
Stereotypy frequency with drug treatment, Day1 ([4]; cocaine 10 mg/kg i.p. or risperidone 2 mg/kg s.c. + cocaine): 60 counts
half-life ([5]; i.v. cocaine): 0.5 h
half-life ([5]; s.c. cocaine): 4 h
